We go through two compounds from patent US20110237600A1, “COMPOUNDS FOR IMPROVING LEARNING AND MEMORY” (AMNESTIX, INC., priority 2008, published 2011).

Experiment [1] has as its target T1, AURKC (Homo sapiens, UniProt Q9UQB9).
T1 construct: purchased Ambit
Description: KinomeScan active-site dependent competition binding assay. To be noted: 10 μM concentration. An excerpt:
(§1) Active-site dependent competition binding assays can be performed with hundreds of known kinases in parallel (Fabian et al., Nat Biotechnol. 2005, 23, 329; Karaman et al., Nat Biotechnol. 2008, 26, 127) in order to determine how compounds bind to both intended and unintended kinases. Such methods allow the assessment of the specificity of a kinase inhibitor.
(§2) Based on a competition binding assay that quantitatively measures the ability of a test compound to compete with an immobilized, active-site directed ligand it is possible to scan the competitive effect of the test compound for a broad variety of kinases in parallel (KinomeScan, Ambit, San Diego, Calif., USA; Fabian et al., Nat Biotechnol. 2005, 23, 329). Based on this analysis it is possible to assess the inhibitory specificity of a test compound. The assay was performed with 1-(8-cyclohexyl-5 isoquinoline-sulfonyl) 2-methyl-piperazine in 10 μM concentration. As result of the assay one obtains the percentage of competition of the active-site directed ligand for each of the over 400 kinases of the test due to the incubation with the test compounds. FIG. 3 lists the kinases ranked according to their binding to 1-(8-cyclohexyl-5 isoquinoline-sulfonyl) 2-methyl-piperazine (compound A). Strong binding (more than 50%) of 1-(8-cyclohexyl-5 isoquinoline-sulfonyl) 2-methyl-piperazine is found only for the kinases CSNK1E, CSNK1A1L, CSNK1D, MERTK, SLK, IRAK1, STK10, MAPK12, PHKG2, MAPK11, MET, AXL, STK32B, AURKC, CLK3, RPS6KA6, PDGFRB, KDR, CDK2.

Experiment [2] has as its target T2, AXL (Homo sapiens, UniProt P30530).
T2 construct: purchased Ambit
Described as above. Conditions: 10 μM concentration.
Source text: as §1, §2

The target of experiment [3] is T3, CDK2 (Homo sapiens, UniProt P24941).
T3 construct: purchased Ambit
Described as above. Conditions: 10 μM concentration.
Source text: as §1, §2

Experiment [4] addresses T4, CLK3 (Homo sapiens, UniProt P49761).
T4 construct: purchased Ambit
Described as above. To be noted: 10 μM concentration.
Source text: as §1, §2

Experiment [5] has as its target T5, CSNK1A1L (Homo sapiens, UniProt Q8N752).
T5 construct: purchased Ambit
The description is as above. Conditions: 10 μM concentration.
Source text: as §1, §2

Experiment [6] deals with T6, CSNK1D (Homo sapiens, UniProt P48730).
T6 construct: purchased Ambit
The experiment is described as above. To be noted: 10 μM concentration.
Source text: as §1, §2

Experiment [7] addresses T7, CSNK1E (Homo sapiens, UniProt P49674).
T7 construct: purchased Ambit
Described as above. To be noted: 10 μM concentration.
Source text: as §1, §2

Experiment [8] concerns the target T8, IRAK1 (Homo sapiens, UniProt P51617).
T8 construct: purchased Ambit
The experiment is described as above. Conditions: 10 μM concentration.
Source text: as §1, §2

The target in experiment [9] is T9, KDR (Homo sapiens, UniProt P35968).
T9 construct: purchased Ambit
The experiment is described as above. Conditions: 10 μM concentration.
Source text: as §1, §2

Experiment [10] addresses T10, MAPK11 (Homo sapiens, UniProt Q15759).
T10 construct: purchased Ambit
Described as above. Conditions: 10 μM concentration.
Source text: as §1, §2

Experiment [11] deals with T11, MAPK12 (Homo sapiens, UniProt P53778).
T11 construct: purchased Ambit
Described as above. Conditions: 10 μM concentration.
Source text: as §1, §2

Experiment [12] concerns the target T12, MERTK (Homo sapiens, UniProt Q12866).
T12 construct: purchased Ambit
The description is as above. Conditions: 10 μM concentration.
Source text: as §1, §2

Experiment [13] concerns the target T13, MET (Homo sapiens, UniProt P08581).
T13 construct: purchased Ambit
The experiment is described as above. To be noted: 10 μM concentration.
Source text: as §1, §2

For experiment [14], the target named is T14, PDGFRB (Homo sapiens, UniProt P09619).
T14 construct: purchased Ambit
Described as above. To be noted: 10 μM concentration.
Source text: as §1, §2

For experiment [15], the target named is T15, PHKG2 (Homo sapiens, UniProt P15735).
T15 construct: purchased Ambit
The description is as above. Conditions: 10 μM concentration.
Source text: as §1, §2

Experiment [16] deals with T16, RPS6KA6 (Homo sapiens, UniProt Q9UK32).
T16 construct: purchased Ambit
T16 sequence (Q9UK32 whole entry): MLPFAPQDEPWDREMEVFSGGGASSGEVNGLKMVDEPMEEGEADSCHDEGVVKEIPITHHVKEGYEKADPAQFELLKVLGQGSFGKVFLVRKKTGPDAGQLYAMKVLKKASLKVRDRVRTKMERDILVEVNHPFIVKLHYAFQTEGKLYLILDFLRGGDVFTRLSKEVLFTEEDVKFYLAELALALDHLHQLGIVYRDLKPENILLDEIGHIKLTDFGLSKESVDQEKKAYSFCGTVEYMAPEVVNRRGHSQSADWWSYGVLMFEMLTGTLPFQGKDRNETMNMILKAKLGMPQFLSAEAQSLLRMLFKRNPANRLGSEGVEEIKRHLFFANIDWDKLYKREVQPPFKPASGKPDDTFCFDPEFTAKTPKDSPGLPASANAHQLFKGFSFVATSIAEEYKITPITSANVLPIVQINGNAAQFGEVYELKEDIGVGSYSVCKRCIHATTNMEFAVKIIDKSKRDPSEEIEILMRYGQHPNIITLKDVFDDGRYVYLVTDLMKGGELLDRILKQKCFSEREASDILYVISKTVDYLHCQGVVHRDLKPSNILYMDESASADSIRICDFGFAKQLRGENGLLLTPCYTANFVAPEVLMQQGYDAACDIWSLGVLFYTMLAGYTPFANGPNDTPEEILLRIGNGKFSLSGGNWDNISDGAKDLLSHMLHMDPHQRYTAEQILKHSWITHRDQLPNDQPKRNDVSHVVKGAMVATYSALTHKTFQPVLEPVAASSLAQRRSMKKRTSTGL
Described as above. To be noted: 10 μM concentration.
Source text: as §1, §2

Experiment [17] deals with T17, SLK (Homo sapiens, UniProt Q9H2G2).
T17 construct: purchased Ambit
The description is as above. Conditions: 10 μM concentration.
Source text: as §1, §2

For experiment [18], the target named is T18, STK10 (Homo sapiens, UniProt O94804).
T18 construct: purchased Ambit
The description is as above. To be noted: 10 μM concentration.
Source text: as §1, §2

Experiment [19] addresses T19, STK32B (Homo sapiens, UniProt Q9NY57).
T19 construct: purchased Ambit
The description is as above. To be noted: 10 μM concentration.
Source text: as §1, §2

In experiment [20] the test system is over 400 kinases. Nature of the experiment: Kinase specificity analysis (KinomeScan panel). Conditions: 10 μM concentration; strong binding (more than 50%) for 19 kinases only.
Source text: as §1
as §2, with “Strong binding (more than 50%) of 1-(8-cyclohexyl-5 isoquinoline-sulfonyl) 2-methyl-piperazine is found only for the kinases CSNK1E, CSNK1A1L, CSNK1D, MERTK, SLK, IRAK1, STK10, MAPK12, PHKG2, MAPK11, MET, AXL, STK32B, AURKC, CLK3, RPS6KA6, PDGFRB, KDR, CDK2.” left out

The test system of experiment [21] is hippocampal slices from 3-4 week-old Wistar rats. Description: In vitro LTP analysis, theta burst stimulation, fEPSP slope recording. It is filed as cell-based, rat. From the text: The effect of long-term potentiation (LTP) which can be measured in vitro, is generally thought to correlate with memory. Stimulation of an afferent neuron or neuronal cell area results in membrane potentials of a downstream positioned neuron or neuronal cell area. Such membrane potentials are long-term potentiated at least over hours after stimulating the afferent neurons e.g. with a theta burst paradigm. Therefore, LTP is regarded as memory on cellular level. Electrophysiological LTP measurements on neurons incubated with a test compound in comparison to sham incubated neurons can be used to assess the compounds' potential to enhance memory (See generally Cooke and Bliss, Brain, 2006, 129 (1659), which is hereby incorporated by reference).
LTP is thought to be suitable as in vitro model for the assessment of memory function. Therefore, it allows analysis of test compounds, e.g. the compounds of the invention, e.g. 1-(8-cyclohexyl-5 isoquinoline-sulfonyl) 2-methyl-piperazine for memory enhancing potential. Experiments were done on hippocampal slices from 3-4 week-old Wistar rats. The rats were sacrificed by decapitation without prior anesthesia. […] A platinum/tungsten electrode was then lowered into the CA1 dendritic layer under visual control until stable amplitudes of the recorded fEPSP were achieved. […] Then, the test compound was washed in for a period of 30 min during which stimulation was continued at 0.05 Hz and fEPSPs were continuously recorded. […] All slices recorded simultaneously were treated with the same time schedule. From the recorded data, the amplitudes of the evoked fEPSP were automatically calculated by the recording software (Synchroslice data acquisition and analysis, LRE) as the negative peak of the postsynaptic signal with respect to baseline and plotted online. All recorded signals were digitally stored for later offline analysis, in particular for fEPSP negative slope calculation. From the stored single sweeps, the slope was calculated between 30% and 70% of the maximum fEPSP amplitude. […]

The subject of experiment [22] is undifferentiated PC12 cells. Conditions: Zhang et al., Cell Mol Biol Lett., 2006; cited from earlier work.

T1 sequence (Q9UQB9 whole entry): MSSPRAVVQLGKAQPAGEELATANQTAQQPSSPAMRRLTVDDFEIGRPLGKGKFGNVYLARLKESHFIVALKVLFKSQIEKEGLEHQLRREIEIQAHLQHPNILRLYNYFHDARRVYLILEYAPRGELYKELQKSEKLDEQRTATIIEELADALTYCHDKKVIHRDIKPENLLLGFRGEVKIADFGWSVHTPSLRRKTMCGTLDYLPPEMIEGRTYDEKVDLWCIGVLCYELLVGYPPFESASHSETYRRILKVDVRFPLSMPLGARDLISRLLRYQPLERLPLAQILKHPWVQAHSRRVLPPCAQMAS
T13 sequence (P08581 25-1390): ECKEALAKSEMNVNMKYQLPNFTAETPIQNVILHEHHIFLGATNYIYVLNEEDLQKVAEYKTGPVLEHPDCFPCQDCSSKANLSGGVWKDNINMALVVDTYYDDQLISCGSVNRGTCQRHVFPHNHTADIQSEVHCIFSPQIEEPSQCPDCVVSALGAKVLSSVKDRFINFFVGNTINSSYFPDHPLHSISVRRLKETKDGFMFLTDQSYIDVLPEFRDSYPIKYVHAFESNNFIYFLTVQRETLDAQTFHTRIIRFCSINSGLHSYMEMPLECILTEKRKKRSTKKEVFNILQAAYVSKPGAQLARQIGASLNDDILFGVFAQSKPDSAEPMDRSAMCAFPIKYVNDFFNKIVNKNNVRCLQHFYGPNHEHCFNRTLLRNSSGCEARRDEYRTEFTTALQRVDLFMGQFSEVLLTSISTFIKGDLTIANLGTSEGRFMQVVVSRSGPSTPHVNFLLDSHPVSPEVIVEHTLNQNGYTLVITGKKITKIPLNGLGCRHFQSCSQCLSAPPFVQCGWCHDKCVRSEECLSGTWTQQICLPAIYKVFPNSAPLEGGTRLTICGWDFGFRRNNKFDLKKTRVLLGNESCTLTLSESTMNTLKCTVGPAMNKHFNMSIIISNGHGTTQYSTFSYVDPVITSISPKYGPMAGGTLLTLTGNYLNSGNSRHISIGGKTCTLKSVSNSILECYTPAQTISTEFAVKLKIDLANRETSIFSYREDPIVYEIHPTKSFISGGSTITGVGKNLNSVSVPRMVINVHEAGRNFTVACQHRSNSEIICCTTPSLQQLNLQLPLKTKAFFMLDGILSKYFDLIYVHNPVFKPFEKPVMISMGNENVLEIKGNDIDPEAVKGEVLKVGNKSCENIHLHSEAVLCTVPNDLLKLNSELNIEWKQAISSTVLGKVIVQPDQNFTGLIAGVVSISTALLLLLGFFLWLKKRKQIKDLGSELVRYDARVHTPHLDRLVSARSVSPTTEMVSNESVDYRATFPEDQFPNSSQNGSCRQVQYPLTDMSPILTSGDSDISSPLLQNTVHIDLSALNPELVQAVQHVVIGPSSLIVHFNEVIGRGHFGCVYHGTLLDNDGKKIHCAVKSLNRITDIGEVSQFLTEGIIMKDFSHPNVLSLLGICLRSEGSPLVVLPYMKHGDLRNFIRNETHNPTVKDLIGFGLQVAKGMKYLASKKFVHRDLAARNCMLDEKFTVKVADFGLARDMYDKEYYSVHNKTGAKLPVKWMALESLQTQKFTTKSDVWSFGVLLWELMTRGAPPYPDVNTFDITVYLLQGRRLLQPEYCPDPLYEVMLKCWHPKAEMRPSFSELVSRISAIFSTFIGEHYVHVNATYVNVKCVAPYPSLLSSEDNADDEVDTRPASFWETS
T2 sequence (P30530 26-894): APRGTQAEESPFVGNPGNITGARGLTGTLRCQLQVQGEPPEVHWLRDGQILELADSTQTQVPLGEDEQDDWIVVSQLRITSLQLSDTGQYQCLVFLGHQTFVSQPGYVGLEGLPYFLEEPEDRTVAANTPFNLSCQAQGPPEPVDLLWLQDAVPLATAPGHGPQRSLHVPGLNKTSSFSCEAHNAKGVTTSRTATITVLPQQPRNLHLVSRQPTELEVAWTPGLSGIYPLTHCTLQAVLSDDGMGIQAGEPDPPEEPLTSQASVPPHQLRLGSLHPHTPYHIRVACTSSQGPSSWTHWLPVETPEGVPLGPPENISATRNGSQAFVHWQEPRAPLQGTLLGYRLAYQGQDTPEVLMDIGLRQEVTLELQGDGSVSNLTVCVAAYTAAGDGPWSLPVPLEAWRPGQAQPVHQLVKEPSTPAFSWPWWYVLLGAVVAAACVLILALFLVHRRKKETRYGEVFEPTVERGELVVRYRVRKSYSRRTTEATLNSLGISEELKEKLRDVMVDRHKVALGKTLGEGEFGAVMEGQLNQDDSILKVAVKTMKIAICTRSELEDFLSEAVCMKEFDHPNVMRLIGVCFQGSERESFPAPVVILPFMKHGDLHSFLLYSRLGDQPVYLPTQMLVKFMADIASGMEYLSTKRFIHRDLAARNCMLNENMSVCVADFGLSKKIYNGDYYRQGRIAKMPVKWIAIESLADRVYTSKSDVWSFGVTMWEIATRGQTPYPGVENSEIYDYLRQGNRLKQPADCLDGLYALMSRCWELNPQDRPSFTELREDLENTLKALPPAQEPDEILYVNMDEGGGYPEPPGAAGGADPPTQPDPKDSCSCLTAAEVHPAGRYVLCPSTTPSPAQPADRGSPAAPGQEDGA
T19 sequence (Q9NY57 whole entry): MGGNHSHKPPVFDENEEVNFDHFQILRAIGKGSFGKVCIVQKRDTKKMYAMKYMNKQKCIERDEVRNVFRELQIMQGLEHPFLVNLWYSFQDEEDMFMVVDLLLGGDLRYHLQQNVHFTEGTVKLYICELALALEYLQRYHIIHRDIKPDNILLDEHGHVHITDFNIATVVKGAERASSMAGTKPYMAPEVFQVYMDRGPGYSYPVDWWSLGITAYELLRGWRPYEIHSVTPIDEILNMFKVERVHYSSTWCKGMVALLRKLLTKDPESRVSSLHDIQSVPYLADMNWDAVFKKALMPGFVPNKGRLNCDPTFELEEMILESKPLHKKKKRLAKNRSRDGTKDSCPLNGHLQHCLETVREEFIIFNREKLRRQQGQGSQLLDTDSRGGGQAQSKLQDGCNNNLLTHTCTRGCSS
T8 sequence (P51617 whole entry): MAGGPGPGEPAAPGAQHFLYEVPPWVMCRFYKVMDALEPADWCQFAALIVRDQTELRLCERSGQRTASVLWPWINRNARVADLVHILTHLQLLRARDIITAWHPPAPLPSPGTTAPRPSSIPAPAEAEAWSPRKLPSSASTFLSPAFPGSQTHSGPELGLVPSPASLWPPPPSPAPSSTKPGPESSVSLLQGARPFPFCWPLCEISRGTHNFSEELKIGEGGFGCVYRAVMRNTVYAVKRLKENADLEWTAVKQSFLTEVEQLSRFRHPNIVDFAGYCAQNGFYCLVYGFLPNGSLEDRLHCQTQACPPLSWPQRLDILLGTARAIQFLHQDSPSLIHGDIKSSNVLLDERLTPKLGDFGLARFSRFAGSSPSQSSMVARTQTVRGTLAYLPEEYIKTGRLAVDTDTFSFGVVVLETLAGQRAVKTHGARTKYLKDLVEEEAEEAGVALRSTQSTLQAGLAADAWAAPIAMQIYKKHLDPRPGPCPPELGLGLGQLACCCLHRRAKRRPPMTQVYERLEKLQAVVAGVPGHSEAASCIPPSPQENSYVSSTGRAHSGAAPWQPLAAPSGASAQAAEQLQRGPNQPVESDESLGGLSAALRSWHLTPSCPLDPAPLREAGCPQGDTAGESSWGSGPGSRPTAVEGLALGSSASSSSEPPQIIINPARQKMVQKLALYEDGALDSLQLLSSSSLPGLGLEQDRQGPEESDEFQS
T5 sequence (Q8N752 whole entry): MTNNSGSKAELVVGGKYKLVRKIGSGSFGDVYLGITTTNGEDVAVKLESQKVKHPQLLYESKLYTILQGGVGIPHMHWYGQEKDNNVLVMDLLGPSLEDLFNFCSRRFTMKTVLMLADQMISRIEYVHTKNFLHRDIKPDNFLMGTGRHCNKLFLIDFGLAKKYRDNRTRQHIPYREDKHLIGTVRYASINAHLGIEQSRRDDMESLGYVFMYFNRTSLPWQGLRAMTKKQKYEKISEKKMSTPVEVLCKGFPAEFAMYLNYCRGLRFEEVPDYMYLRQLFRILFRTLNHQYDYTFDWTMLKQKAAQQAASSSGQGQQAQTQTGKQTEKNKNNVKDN

On to `CC1CNCCN1S(=O)(=O)c1ccc(C2CCCCC2)c2cnccc12` (stereo not drawn) [1-(8-cyclohexyl-5 isoquinoline-sulfonyl) 2-methyl-piperazine], for which the “binding (percentage of competition of the active-site directed ligand)” value in experiment [1], in [2], in [3], in experiment [4], in experiment [5] and in experiment [6] was “more than 50%” in each case. Besides, the “binding (percentage of competition of the active-site directed ligand)” value in experiment [7], in experiment [8], in experiment [9], in experiment [10], in [11] and in [12] was “more than 50%” in each case. For the same compound, the “binding (percentage of competition of the active-site directed ligand)” value in [13], in experiment [14], in experiment [15], in experiment [16], in experiment [17] and in experiment [18] was “more than 50%” throughout. Further, in [19], the “binding (percentage of competition of the active-site directed ligand)” value was “more than 50%”. Also, the “inhibitory specificity across the kinase panel” value in experiment [20] was “very selective kinase inhibitor”. The “increase in EPSP slopes when the compound is removed” value in [21] (100 μM concentration) is “most obvious and very strong”. Besides, the “LTP induction (fEPSP slope)” value in experiment [21] (compound washed in at increasing concentrations (1 μM, 10 μM and 100 μM), control slices about 140% of pre-stimulus levels) is “complete block of LTP-induction”. Moreover, the “EPSP slopes when the compound is removed” value in experiment [21] (wash-out 30 min after LTP induction, 1 μM, 10 μM and 100 μM) is “increase in EPSP slopes”.

`O=S(=O)(c1cccc2cnccc12)N1CCCNCC1` [Fasudil]: the neurite outgrowth entry in [22] is “increase neurite outgrowth”.
